{"source": "patent US20250002569A1", "about": "“METHOD OF TREATING OSTEOARTHRITIS” (AlaMab Therapeutics, Inc., priority 2023, published 2025)", "format_in_all_cases": "in vivo, Sprague Dawley (SD) rats", "key": {"[1]": {"assay": "Weight of rats with osteoarthritis induced by pMMx+ACLT", "conditions": "Duloxetine 5 mg/kg i.g. daily", "experimental": "Male Sprague Dawley (SD) rats (Specific Pathogen Free grade; Shanghai Slac Laboratory Animal Co. Ltd) were obtained in the study. Each rat was weight at the start of treatment, with the average weight ranging from 200-220 grams. Upon arrival at the test facility, the animals were housed at five rats per cage and acclimated for five to seven days prior to initiation of treatment.\n(§1) After acclimation of the animals, the animals were evaluated for normal pain threshold (on Day 1 of study) using the Von Frey, or Up-Down, method, and for biped balance degree of the knee joint on the surgical side (right hind limb) using a biped balance tester. The rats were then anesthetized with isoflurane, and the knee joints were depilated and disinfected. Osteoarthritis was induced in the animals by partial medial meniscectomy in combination with anterior cruciate ligament transection (pMMx+ACLT). Briefly, the skin and joint cavity close to the inner side of the right knee were cut, the knee joint was placed in the maximum flexion state, with the joint cavity exposed and the medial meniscus separated. The medial ⅓ meniscus and the anterior cruciate ligament were then cut-off. For the control animal group (no osteoarthritis induction), only the skin was cut to open the joint cavity without removing the ligament or meniscus. The date of the osteoarthritis model establishment was Day 8 of the study.\n(§2) One week after model establishment (Day 15 of study), before administration of treatment, the basic pain threshold of plantar pain was evaluated on the operation side for each of the animals, and the osteoarthritis model rats were evenly divided according to the basic Von Frey reaction value (2-5), with 8 animals used for each of the osteoarthritis model group (vehicle-treatment), the positive control drug (duloxetine) 5 mg/kg group, and the ALMB-0166 15 mg/kg, 25 mg/kg, and 50 mg/kg dose groups. After grouping, drug treatment was started on Day 15 of study. For each of the ALMB-0166-treated test groups, the treatment was administered intravenously, once a week, with four total doses (on Day 15, 22, 29, and 36 of the study, corresponding to day 1, 8, 15 and 22 of treatment). For the positive control group, duloxetine was administered orally every day until the end of the experimental cycle.\n(§3) Weight measurements were taken for animals in each test group on Days 15, 22, 29 and 36 of the study. On Days 16, 23, 30 and 37, the gait of each animal, the change of plantar pain threshold induced by knee joint lesions on the operative side, and the weight bearing of both lower limbs were measured for each animal was scored on according to the Coderre scoring method, the Up-Down method, and bipedal balance pain testing, respectively."}, "[2]": {"tested_on": "rats with osteoarthritis induced by pMMx+ACLT", "assay": "Gait score (Coderre scoring method) in pMMx+ACLT osteoarthritis rat model", "conditions": "for Gait Score: Duloxetine 5 mg/kg i.g. daily", "experimental": "as §1, §2, §3\nCoderre gait method was used to measure the gait of each animal. The gait was measured according to the following scoring: standard (Grade 0: normal walking, 0 point); Level 1 (sight claudication, slight bending below knee joint, 2 points); Level 2 (claudication, the affected limb can touch the ground, 4 points); Level 3 (severe claudication, the affected limb leaves the ground and walk on three feet, 6 points).\n(§4) The gait scoring, plantar pain threshold, and weight bearing differential were expressed as the mean and […] (Mean±SD). The data between model group and administration group at multiple time points were analyzed by repeated measures analysis of variance method with SPSS Statistics 21 software, and Tamhane's method for subsequent analysis. P<0.05 was considered to have a significant difference, and p<0.01 was considered to have a very significant difference. The final data were plotted with GraphPad Prism 6 software."}, "[3]": {"tested_on": "rats with osteoarthritis induced by pMMx+ACLT", "assay": "Mechanical pain threshold of plantar pain (Von Frey Up-Down method, 50% MWT) in pMMx+ACLT osteoarthritis rat model", "conditions": "for Percent Increase in 50% MWT (g) (as compared to Day 15 of study) / Pain threshold of plantar pain, 50% MWT: Duloxetine 5 mg/kg i.g. daily", "experimental": "as §1, §2, §3\nThe Up-Down method was used to measure the plantar pain threshold. Following the Up-Down methos, each rat was placed in a transparent enclosure with a sieve-shaped metal plate at the bottom, and the animal was allowed to adapt to about 15 minutes until the autonomous exploration and grooming activities stop. Von Frey probes were then used to vertically stimulate the middle of the hind plantar of each rat to make the plantar slightly s-shaped for 5 second, and the paw withdrawal response was observed. A positive response was noted if the paw was sharply withdrawn or there was flinching upon removal. The interval between each measurement was about 10 sec. If no response was observed after probe stimulation, it was regarded as a negative reaction.\nFor scoring the mechanical pain, the rats were stimulated with a series of Von Frey probes of 0.4, 0.6, 1, 1.4, 2, 4, 6, 8, 10, and 15 g). Testing was start with a 2 g probe, and if a positive reaction occurred, it was recorded as an “X,” and testing was continued with a 1.4 g probe. […] Testing was continued accordingly, using the probes successively without circumvention. […] If a positive reaction was induced even by the 0.4 g probe, the 50% MWT was recorded as 0.4 g. […]"}, "[4]": {"tested_on": "rats with osteoarthritis induced by pMMx+ACLT", "assay": "Weight bearing difference of hind legs (biped balance measurement) in pMMx+ACLT osteoarthritis rat model", "conditions": "for Weight bearing difference of hind legs: Duloxetine 5 mg/kg i.g. daily", "experimental": "as §1, §2, §3\nA bipedal balance pain tester was used to evaluate the weight bearing of both lower limbs for each animal. Each animal was placed in the plexiglass cover of the biped balance pain instrument. After the animal completed their exploratory behavior, the forelimbs of the rats laid on the incline of the device, and the hind limbs stood on the left and right balance plates respectively. […] The measurements were repeated three times for each animal, with an interval of 10 seconds between each replicate measurement.\nas §4"}, "[5]": {"conditions": "Day 1 (before model establishment)"}, "[6]": {"conditions": "duloxetine 5 mg/kg, multivariate test, p<0.05"}}, "note": "Where a name gives a salt, the structure may show the parent alone."}
{"compound": "CNCC[C@H](Oc1cccc2ccccc12)c1cccs1", "note": "[Duloxetine, Duloxetine hydrochloride]", "values": [{"measurement": "Weight", "setting": "[1]; Day 1 of study (before treatment)", "value": "223.8 ± 7.8", "unit": "g"}, {"measurement": "Weight", "setting": "[1]; Day 8 of study (model establishment, before treatment)", "value": "280.1 ± 11.2", "unit": "g"}, {"measurement": "Weight", "setting": "[1]; Day 15 of study (treatment start)", "value": "317.8 ± 20.4", "unit": "g"}, {"measurement": "Weight", "setting": "[1]; Day 22 of study", "value": "353.9 ± 23.0", "unit": "g"}, {"measurement": "Weight", "setting": "[1]; Day 29 of study", "value": "389.9 ± 26.2", "unit": "g"}, {"measurement": "Weight", "setting": "[1]; Day 36 of study", "value": "423.0 ± 30.0", "unit": "g"}, {"measurement": "Gait Score", "setting": "[2]; Day 16 of study", "value": "3.5 ± 0.9"}, {"measurement": "Gait Score", "setting": "[2]; Day 23 of study", "value": "3.0 ± 1.1"}, {"measurement": "Gait Score", "setting": "[2]; Day 30 of study", "value": "1.3 ± 1.0"}, {"measurement": "Gait Score", "setting": "[2]; Day 37 of study", "value": "0.0 ± 0.0"}, {"measurement": "Gait score compared to the vehicle-treated group", "setting": "[2]; duloxetine 5 mg/kg, multivariate test, p>0.05", "value": "no significant different"}, {"measurement": "Percent Increase in 50% MWT (g) (as compared to Day 15 of study)", "setting": "[3]; Day 1", "value": 0.0, "unit": "%"}, {"measurement": "Pain threshold of plantar pain, 50% MWT", "setting": "[3]; [5]", "value": "15.00 ± 0.00", "unit": "g"}, {"measurement": "Percent Increase in 50% MWT (g) (as compared to Day 15 of study)", "setting": "[3]; Day 15", "value": 0.7, "unit": "%"}, {"measurement": "Pain threshold of plantar pain, 50% MWT", "setting": "[3]; Day 15 (before administration of treatment)", "value": "3.23 ± 0.64", "unit": "g"}, {"measurement": "Pain threshold of plantar pain, 50% MWT", "setting": "[3]; Day 16", "value": "5.27 ± 2.72", "unit": "g"}, {"measurement": "Percent Increase in 50% MWT (g) (as compared to Day 15 of study)", "setting": "[3]; Day 16", "value": 52.9, "unit": "%"}, {"measurement": "Pain threshold of plantar pain, 50% MWT", "setting": "[3]; Day 23", "value": "7.11 ± 2.45", "unit": "g"}, {"measurement": "Percent Increase in 50% MWT (g) (as compared to Day 15 of study)", "setting": "[3]; Day 23", "value": 90.3, "unit": "%"}, {"measurement": "Pain threshold of plantar pain, 50% MWT", "setting": "[3]; Day 29", "value": "8.47 ± 4.92", "unit": "g"}, {"measurement": "Percent Increase in 50% MWT (g) (as compared to Day 15 of study)", "setting": "[3]; Day 30", "value": 108.2, "unit": "%"}, {"measurement": "Pain threshold of plantar pain, 50% MWT", "setting": "[3]; Day 37", "value": "9.84 ± 4.65", "unit": "g"}, {"measurement": "Percent Increase in 50% MWT (g) (as compared to Day 15 of study)", "setting": "[3]; Day 37", "value": 70.9, "unit": "%"}, {"measurement": "Pain threshold of plantar pain over time compared with osteoarthritis model (vehicle-treated) group", "setting": "[3]; [6]", "value": "significant increase"}, {"measurement": "Pain threshold of plantar pain at each time point", "setting": "[3]; duloxetine dosage group, Days 23, 30 and 37 of the study, p<0.05", "value": "significantly increased"}, {"measurement": "Weight bearing difference of hind legs", "setting": "[4]; [5]", "value": "2.96 ± 1.88", "unit": "g"}, {"measurement": "Weight bearing difference of hind legs", "setting": "[4]; Day 15 (treatment start)", "value": "104.28 ± 11.40", "unit": "g"}, {"measurement": "Weight bearing difference of hind legs", "setting": "[4]; Day 16", "value": "95.60 ± 2.27", "unit": "g"}, {"measurement": "Weight bearing difference of hind legs", "setting": "[4]; Day 23", "value": "80.91 ± 1.98", "unit": "g"}, {"measurement": "Weight bearing difference of hind legs", "setting": "[4]; Day 30", "value": "56.80 ± 4.06", "unit": "g"}, {"measurement": "Weight bearing difference of hind legs", "setting": "[4]; Day 37", "value": "51.12 ± 4.81", "unit": "g"}, {"measurement": "Decrease in hind limb weight bearing difference over time compared with osteoarthritis model (vehicle-treated) group", "setting": "[4]; [6]", "value": "significant"}, {"measurement": "Hind limb weight bearing difference at each time point", "setting": "[4]; duloxetine test group, Days 16, 23, 30 and 37, p<0.01", "value": "significant decrease"}]}
